Measurements from patent US11180461B2, “Triazoles as Kv3 inhibitors” (AUTIFONY THERAPEUTICS LIMITED, priority 2012, dated 2021).

Experiments:
[1] = Determination of in vivo pharmacokinetic parameters (blood and brain) in rats, with and without Elacridar; conditions: rat, oral 1 mg/kg
Protocol: Adult male rats (Charles River, Italy) were dosed with test compound orally at 1 mg/kg (5 ml/kg, in 5% v/v DMSO, 0.5% w/v HPMC in water) and intravenously at 0.5 mg/kg (2 ml/kg, in 5% v/v DMSO 40% w/v PEG400 in saline). After oral administration, blood samples were collected under deep Isofluorane anesthesia from the portal vein and heart of each rat (1 rat per time point). After intravenous administration, serial blood samples were collected from the lateral tail vein of each rat. A further group of rats (n=1 per test compound) received a single intravenous administration of the PgP transport inhibitor, Elacridar (3 mg/kg) shortly before the oral administration of the test compound at 1 mg/kg, as above. Blood and brain samples were collected at a single timepoint of 0.5 h after dose administration for these animals. In all cases, blood samples were collected into potassium EDTA tubes.
Blood and brain samples were assayed for test compound concentration using a method based on protein precipitation with acetonitrile followed by HPLC/MS-MS analysis with an optimized analytical method.
The concentrations of test compound in blood (expressed as ng/ml) and brain (expressed as ng/g) at the different time points following either oral or intravenous dosing were analysed using a non-compartmental pharmacokinetic model using WinNonLin Professional version 4.1. The following parameters were drived:
Intravenous dosing: Maximum concentration over time (Cmax), integrated concentration over time (AUC), clearance (Clb), volume of distribution (Vss) and half-life (t1/2).
Oral dosing: Cmax, time of maximum concentration (Tmax), AUC, bioavailability (F %), fraction absorbed (Fa %), blood to brain ratio (AUC BB), and Fold-change in AUC BB in the presence of Elacridar.

[2] = molecular target: T1, human Kv3.1 channels (hKv3.1) (Homo sapiens, UniProt P48547); test: hKv3.1 recombinant cell assay, IonWorks Quattro planar array electrophysiology; assay type: cell-based; conditions: comparable = activity for one channel less than 2 fold that for the other
T1 construct: expressed in transfected cells; host or cells: CHO/Gam/E1A-clone22 (CGE22) cells, transduced with BacMam pFBM/human Kv3.1
T1 sequence (P48547 1-511): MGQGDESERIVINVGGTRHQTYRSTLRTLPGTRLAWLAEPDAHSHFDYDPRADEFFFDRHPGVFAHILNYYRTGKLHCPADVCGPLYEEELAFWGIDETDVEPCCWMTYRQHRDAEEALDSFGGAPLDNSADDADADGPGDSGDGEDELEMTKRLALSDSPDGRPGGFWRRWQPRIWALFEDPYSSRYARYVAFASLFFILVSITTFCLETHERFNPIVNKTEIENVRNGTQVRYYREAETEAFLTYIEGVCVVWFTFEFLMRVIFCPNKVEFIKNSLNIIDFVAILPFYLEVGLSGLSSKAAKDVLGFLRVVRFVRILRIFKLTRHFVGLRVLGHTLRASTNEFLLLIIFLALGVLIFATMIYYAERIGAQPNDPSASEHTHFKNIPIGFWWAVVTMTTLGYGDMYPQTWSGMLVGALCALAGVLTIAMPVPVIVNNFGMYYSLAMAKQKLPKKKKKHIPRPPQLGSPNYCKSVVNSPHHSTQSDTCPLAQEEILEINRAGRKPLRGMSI
Text: The ability of the compounds of the invention to modulate the voltage-gated potassium channel subtypes Kv3.2/3.1 may be determined using the following assay. The assay may also be used to determine the ability of compounds of the invention to modulate the voltage-gated potassium channel Kv3.3. Analogous methods may be used to investigate the ability of the compounds of the invention to modulate other channel subtypes.
To assess compound effects on human Kv3.1 channels (hKv3.1), CHO/Gam/E1A-clone22 alias CGE22 cells were transduced using a hKv3.1 BacMam reagent. This cell line was designed to be an improved CHO-K1-based host for enhanced recombinant protein expression as compared to wild type CHO-K1. The cell line was generated following the transduction of CHO-K1 cells with a BacMam virus expressing the Adenovirus-Gam1 protein and selection with Geneticin-G418, to generate a stable cell line, CHO/Gam-A3. CHO/Gam-A3 cells were transfected with pCDNA3-E1A-Hygro, followed by hygromycin-B selection and FACS sorting to obtain single-cell clones. […]
Experiments were conducted at room temperature using IonWorks Quattro™ planar array electrophysiology technology (Molecular Devices Corp.) with PatchPlate™ PPC. […] Planar electrode hole resistances (Rp) were determined by applying a 10 mV voltage step across each well. […]

Cc1ccc(Oc2ccc(-n3c(C)n[nH]c3=O)cn2)c2c1OCC21CC1 [Example 14, 5-methyl-4-{6-[(7-methylspiro[1-benzofuran-3,1′-cyclopropan]-4-yl)oxy]pyridin-3-yl}-2,4-dihydro-3H-1,2,4-triazol-3-one]
AUC BB relative to Reference Example 87 and Reference Example 88 of WO2011069951A1 ([1]; AUC BB from blood and brain): at least two fold
change in AUC BB in the presence of Elacridar ([1]; Elacridar 3 mg/kg i.v., blood and brain at 0.5 h, p-glycoprotein interaction): limited change
activity between modulation of Kv3.1 and Kv3.2 channels [2]: comparable activity between modulation of Kv3.1 and Kv3.2 channels
